Values quoted from earlier work, collected in publication PMC11187563, “The importance of tyrosines in multimers of cyclic RGD nonapeptides: towards αvβ6-integrin targeted radiotherapeutics” (RSC Medicinal Chemistry, 2024).

System: αvβ6-integrin
Settings: compared with its two siblings with one Phe replaced by a Tyr; cited from earlier work

In the case of cyclo[FRGDLAFp(NMe)K], the “αvβ6-integrin affinity and subtype selectivity” value is given as “slightly better αvβ6-integrin affinity and subtype selectivity”.
